The text below walks through data of patent US20250144107A1, “USE OF A PIKFYVE INHIBITOR IN COMBINATION WITH IMMUNOTHERAPY” (The Regents of the University of Michigan, priority 2023, published 2025).

Assay [1] concerns syngeneic pancreatic tumors established with orthotopic injection of KPC1361 cells. As to the kind of experiment: Orthotopic KPC1361 pancreatic tumor model with anti-PD-1. Type of assay: in vivo, mice. Particulars: apilimod 60 mg/kg, ESK981 30 mg/kg oral gavage. An excerpt:
FIG. 8B is a line graph of the efficacy of α-PD1 in combination with apilimod or ESK981 against pancreatic tumors from orthotopically injected KPC1361 cells to mice.
FIG. 8C (Left) is a line graph of flow cytometry measuring surface expression of MHC-I on GPF-labelled cancer cells in pancreatic tumors treated with α-PD1 in combination with apilimod or ESK981; (Right) is a bar graph of quantification of flow cytometry measuring surface expression of MHC-I on GPF-labelled cancer cells in pancreatic tumors treated with α-PD1 in combination with apilimod or ESK981.
FIG. 8D (left) is a series of 3 images of flow cytometry measuring the amount of total CD8^+ T cells, and proportion of activated or proliferative CD8^+ T cells in pancreatic tumors treated with α-PD1 in combination with apilimod or ESK981; (Right) are bar graphs of flow cytometry quantification of the amount of total CD8^+ T cells, and proportion of activated or proliferative CD8^+ T cells in pancreatic tumors treated with α-PD1 in combination with apilimod or ESK981.
FIG. 9A is a line graph of the survival of pancreatic tumor bearing mice, orthotopically injected with KPC1361 cells and treated with an immune checkpoint inhibitor, apilimod, or ESK981 individually, or in combination with each other.
All experimental protocols were conducted after approval by the U-M Institutional Animal Care & Use Committee. […] KPC1361 cells were resuspended in PBS, 1:1 (v/v) mixed with Matrigel (BD Biosciences; catalog #: 354248), and orthotopically injected to the pancreases at 250,000 cells in a total volume of 50 μl per injection. B16-F10 cells were resuspended in PBS and injected subcutaneously to both flanks at 400,000 cells per injection. For ACT study, B16-F10-OVA cells were resuspended in PBS and injected subcutaneously to both flanks at 300,000 cells per injection. For lung metastasis experiment, B16-BL6 cells were resuspended in PBS, 1:1 (v/v) mixed with Matrigel and injected subcutaneously to both flanks at 400,000 cells per injection. Fifteen days after tumor cell inoculation, the primary tumors were removed surgically under anesthesia. Thirty-five days after removal of the primary tumors, lung tissues were extracted and fixed, and lung metastasis was quantified. C57BL/6 mice were acquired from The Jackson Laboratory. Measurement of tumor volume began 5-9 days post tumor cell implantation and was performed 2-3 times per week using calipers. Volume measurements of pancreatic tumors were also achieved with calipers, as reported See, e.g., Koikawa, K. et al., Cell 2021; 184(18):4753-4771. In brief, mice were subjected to anesthesia with 2-3% isoflurane, and the abdominal wall then became soft and loose. […] Volume (mm^3) of tumor was calculated using (W^2×L)/2, where W stood for minor tumor axis and L for the major. […]

The subject of a further assay is KPC1361 cells. As to the kind of experiment: MHC-I surface expression in Pikfyve-wildtype, Pikfyve-null, Atg5-null or Atg7-null cells. Type of assay: cell-based, mouse. The following applies: on-target test. An excerpt: FIG. 1F (Left) is line graphs of flow cytometry measuring MHC-I surface expression in KPC1361 cells with or without Pikfyve KO, treated with DMSO, Bafilomycin, chloroquine, Apilimod, or ESK981; (Right) is bar graphs of quantification of flow cytometry measuring MHC-I surface expression in KPC1361 cells with or without Pikfyve KO, treated with DMSO, Bafilomycin, chloroquine, Apilimod, or ESK981.
FIG. 1G (Left) is a line graph of flow cytometry measuring MHC-I surface expression in KPC1361 cells with non-targeting single-guide RNA (control), or single-guide RNAs depleting Atg5 or Atg7, treated with DMSO or Apilimod; (Right) is a bar graph of quantification of flow cytometry measuring MHC-I surface expression in KPC1361 cells with non-targeting single-guide RNA (control), or single-guide RNAs depleting Atg5 or Atg7, treated with DMSO or Apilimod.
Cancer cells or the OVA-expressing cancer cells treated in vitro were harvested from dishes, resuspended in buffer MACS (PBS containing 2% FBS and 2 mM EDTA), and stained with Zombie NIR™ Fixable Viability kit (BioLegend: #423106) and fluorophore-conjugated antibody against MHC-I or PE-conjugated antibody against SIINFEKL bound H-2Kb (BioLegend; catalog #141604), respectively. The cells were next washed twice with 1 ml MACS and fixed with 2% paraformaldehyde in PBS for 15 minutes at room temperature. The cells were then subjected to the flow cytometer (SONY SH800S) for measuring surface expression of MHC-I or SIINFEKL bound H-2Kb, respectively. Antibodies used in this study include anti-H-2Kb (BD Biosciences; catalog #553570) and anti-H-2Db (28-14-8; Thermo Fisher Scientific; catalog #12-5999-82) for KPC1361 and B16-F10, anti-H-2Kd (BD Biosciences; catalog #562004) and anti-H-2Dd (BD Biosciences; catalog #553580) for 4T1, anti-H-2Kq (BD Biosciences; catalog #742296) and anti-H-2Dq/H-2Lq (BD Biosciences; catalog #744853) for MyC-CaP, and anti-HLA-A,B,C (clone w6/32; BioLegend; catalog #311406) for human cancer cells.

For the compound `CC(C)Cn1c2ccc(Nc3ncccn3)cc2c2c3c(c4c(c21)CCc1nn(C)cc1-4)C(=O)NC3` [ESK981, 13-isobutyl-4-methyl-10-(pyrimidin-2-ylamino)-1,2,4,7,8,13-hexahydro-6H-indazolo[5,4-a]pyrrolo[3,4-c]carbazol-6-one], in assay [1], the “intratumoral activated CD8+ T cells” value was “increase” and the “tumor-specific MHC-I surface expression” value is given as “upregulation”. Also, the “upregulation of MHC-I surface expression, Pikfyve-wildtype vs Pikfyve-null cells” value in the assay on KPC1361 cells was “only observed in the wildtype cells but not Pikfyve-null cells”.

With `Cc1cccc(/C=N/Nc2cc(N3CCOCC3)nc(OCCc3ccccn3)n2)c1` [apilimod, N-[(E)-(3-methylphenyl)methylideneamino]-6-morpholin-4-yl-2-(2-pyridin-2-ylethoxy)pyrimidin-4-amine], in assay [1], the “intratumoral activated CD8+ T cells” value is given as “increase” and the “tumor-specific MHC-I surface expression” value was “upregulation”. In the assay on KPC1361 cells, the “upregulation of MHC-I surface expression, Pikfyve-wildtype vs Pikfyve-null cells” value is recorded as “only observed in the wildtype cells but not Pikfyve-null cells”.
